Assay results taken from article PMC4666608, “Metabolic Profiling of Chicken Embryos Exposed to Perfluorooctanoic Acid (PFOA) and Agonists to Peroxisome Proliferator-Activated Receptors” (PLoS ONE, 2015).
Marks after values point to notes of the source that are not given here.

Test system: chicken embryos
Assay: Metabolic profiling of allantoic fluid (GC-MS, LC-MS, OPLS-DA)
Assay type: in vivo, Gallus gallus domesticus
Conditions: for Mean concentration relative to control, feature Win004_C08 / Mean concentration relative to control, feature Win005_C07 / Mean concentration relative to control, feature Win008_C06 / Mean concentration relative to control, feature Win022_C01 / Mean concentration relative to control, feature Win023_C06 / Mean concentration relative to control, feature win006_C01 / Mean concentration relative to control, feature Win008_C07 / Mean concentration relative to control, feature Win023_C03 / Mean concentration relative to control, feature Win007_C09 / Mean concentration relative to control, feature Win008_C05 / Mean concentration relative to control, feature Win018_C04 / Mean concentration relative to control, feature Win007_C03 / Mean concentration relative to control, feature Win042_C02 / Mean concentration relative to control, feature Win009_C03 / Mean concentration relative to control, feature Win008_C04 / Mean concentration relative to control, feature Win005_C03 / Mean concentration relative to control, feature Win013_C05: GC; for Mean concentration relative to control, feature Win008_C07: tentative 1-Aminocyclopropanecarboxylic acid; for Mean concentration relative to control, feature Win023_C03: tentative 2-Oxoglutaric acid; for Mean concentration relative to control, feature Win007_C09 / Mean concentration relative to control, feature Win008_C05: tentative 2-Oxovaleric acid; for Mean concentration relative to control, feature Win018_C04: tentative 3-Amino-2-piperidone; for Mean concentration relative to control, feature Win007_C03: tentative 3-Hydroxybutanoic acid; for Mean concentration relative to control, feature Win042_C02: tentative Cystathionine; for Mean concentration relative to control, feature Win009_C03: tentative Ketoleucine; for Mean concentration relative to control, feature Win008_C04: tentative Malonic acid; for Mean concentration relative to control, feature Win005_C03: tentative Oxalic acid; for Mean concentration relative to control, feature Win013_C05: tentative Succinic acid
Procedure: Controls were injected with 20 μL vehicle only (DMSO).
Plasma was collected and stored at -70°C.
Metabolites in allantoic fluid and blood plasma were analyzed using gas chromatography-mass spectrometry (GC-MS) and liquid chromatography-mass spectrometry (LC-MS) as described in S1 Methods. Prior to GC-MS and LC-MS analysis, allantoic fluid (100 μL) and blood plasma (50 μL) were extracted. To each sample, 900 μL (allantoic fluid) or 450 μL (blood plasma) of extraction buffer (90/10 v/v methanol:water) including all internal standards were added. Standards for GC-MS were proline, succinic acid, glutamic acid, salicylic acid, alpha-ketoglutarate, putrescine, myristic acid, hexadecanoic acid, cholesterol, and sucrose. Standards for LC-MS were Val-Tyr-Val, Leu-enkephalin, sulfadimethoxine and reserpine. Samples were homogenized by shaking in a bead mill at a frequency of 30 Hz for 3 minutes and proteins were precipitated at +4°C on ice. The samples were centrifuged at +4°C, 14000 rpm, for 10 min. Then, 200 μL supernatant was transferred to a GC microvial and 200 μL was transferred to an LC microvial, and solvents were evaporated. Samples from the four replicate experiments were analyzed using in chronological order and within each replicate experiment the run order of the individual samples was randomized.
Multivariate statistical analyses of metabolite profiles were performed using the software package SIMCA-P version 13.0 (Umetrics, Umeå, Sweden). Data was centered and scaled to variance 1 (UV scaling) prior to modelling. To reduce unintended systematic variation caused by sample processing and instrument drift, GC-MS and LC-MS metabolite amounts (expressed as the area under the chromatographic peak) were normalized by Orthogonal Partial Least Squares analysis (O2PLS) prior to multivariate data analysis. O2PLS finds common (predictive) and unique (orthogonal) variation in two data matrices. If applied to find the common variation between the data matrix containing the measured metabolite concentrations and a matrix containing only the internal standards, the only common (predictive) variation expected is due to the unintended systematic variation. By deleting the contribution of the predictive latent variables, that variation can be removed from the data. Models obtained after this normalization contain in general less latent variables, and this simplification helps when deciding on the number of latent variables to be used. Following normalization, GC-MS and LC-MS data were analyzed together. Initially, a global Principal Component Analysis (PCA) was performed to get an overview of groups and trends and to identify outliers. Projections to latent structures by means of Orthogonal Partial Least Squares Discriminant Analysis (OPLS-DA) was used to model the relationship between the X-matrix (metabolite concentrations) and the Y matrix (class, i.e. exposure group or sex), and to find x-variables that were related to class belonging. OPLS-DA is a supervised prediction and regression method that rotates the projection plane to find the maximum covariance between the data and the class assignment. All groups were first analyzed together in a 5-class OPLS-DA and then each exposure group was analyzed against the control group in a 2-class OPLS-DA. Sex differences were analyzed both using the whole data set and in each group separately using 2-class OPLS-DA, with females and males as the two classes. Only variables with 80% or more nonzero values were included in the statistical models. […] The validity of each model was also checked using CV-ANOVA (ANOVA of the cross-validated residuals). A significance level of p < 0.05 was used. For each model, R ^2 X, R ^2 Y and Q ^2 values were calculated, where R ^2 X is a measure of the fraction of x variation modeled in the extracted latent variables, R ^2 Y is a measure of the fraction of y variation modeled and Q ^2 is an estimate of the predictive ability of the model and is calculated by cross-validation. […]

O=C(O)C(F)(F)C(F)(F)C(F)(F)C(F)(F)C(F)(F)C(F)(F)C(F)(F)F [PFOA, perfluorooctanoic acid]
1.0: Mean concentration relative to control, feature Win004_C08 (PFOA 50 μg/egg) | Mean concentration relative to control, feature Win005_C07 (PFOA 50 μg/egg) | Mean concentration relative to control, feature Win008_C06 (PFOA 50 μg/egg) | Mean concentration relative to control, feature Win022_C01 (PFOA 50 μg/egg) | Mean concentration relative to control, feature win006_C01 (PFOA 50 μg/egg) | Mean concentration relative to control, feature Win023_C03 (PFOA 50 μg/egg) | Mean concentration relative to control, feature Win007_C09 (PFOA 50 μg/egg) | Mean concentration relative to control, feature Win008_C05 (PFOA 50 μg/egg) | Mean concentration relative to control, feature Win018_C04 (PFOA 50 μg/egg) | Mean concentration relative to control, feature Win007_C03 (PFOA 50 μg/egg) | Mean concentration relative to control, feature Win013_C05 (PFOA 50 μg/egg) | Mean concentration relative to control, feature Win004_C08 (PFOA 250 μg/egg) | Mean concentration relative to control, feature Win005_C07 (PFOA 250 μg/egg) | Mean concentration relative to control, feature win006_C01 (PFOA 250 μg/egg) | Mean concentration relative to control, feature Win008_C07 (PFOA 250 μg/egg) | Mean concentration relative to control, feature Win007_C09 (PFOA 250 μg/egg) | Mean concentration relative to control, feature Win008_C05 (PFOA 250 μg/egg) | Mean concentration relative to control, feature Win007_C03 (PFOA 250 μg/egg) | Mean concentration relative to control, feature Win009_C03 (PFOA 250 μg/egg) | Mean concentration relative to control, feature 145.0538@3.072527 (LC, PFOA 50 μg/egg) | Mean concentration relative to control, feature 147.0328@3.0722888 (LC, PFOA 50 μg/egg) | Mean concentration relative to control, feature 160.0323@1.1950632 (LC, PFOA 50 μg/egg) | Mean concentration relative to control, feature 173.0488@3.0734746 (LC, PFOA 50 μg/egg) | Mean concentration relative to control, feature 180.0048@4.421465 (LC, PFOA 50 μg/egg) | Mean concentration relative to control, feature 197.0639@2.1181405 (LC, PFOA 50 μg/egg) | Mean concentration relative to control, feature 201.012@3.046474 (LC, PFOA 50 μg/egg) | Mean concentration relative to control, feature 202.0429@2.9548414 (LC, PFOA 50 μg/egg) | Mean concentration relative to control, feature 205.0533@4.421879 (LC, PFOA 50 μg/egg) | Mean concentration relative to control, feature 226.0107@4.421457 (LC, PFOA 50 μg/egg) | Mean concentration relative to control, feature 236.0816@3.0720985 (LC, PFOA 50 μg/egg) | Mean concentration relative to control, feature 243.1118@2.1537287 (LC, PFOA 50 μg/egg) | Mean concentration relative to control, feature 244.9972@4.421603 (LC, PFOA 50 μg/egg) | Mean concentration relative to control, feature 250.0981@3.072492 (LC, PFOA 50 μg/egg) | Mean concentration relative to control, feature 262.0978@2.7961144 (LC, PFOA 50 μg/egg) | Mean concentration relative to control, feature 263.0855@2.2847009 (LC, PFOA 50 μg/egg) | Mean concentration relative to control, feature 278.0928@3.0723689 (LC, PFOA 50 μg/egg) | Mean concentration relative to control, feature 279.1248@2.796395 (LC, PFOA 50 μg/egg) | Mean concentration relative to control, feature 280.1425@2.730277 (LC, PFOA 50 μg/egg) | Mean concentration relative to control, feature 289.1012@3.249983 (LC, PFOA 50 μg/egg) | Mean concentration relative to control, feature 294.1242@2.3692534 (LC, PFOA 50 μg/egg) | Mean concentration relative to control, feature 302.0508@3.0722616 (LC, PFOA 50 μg/egg) | Mean concentration relative to control, feature 308.073@4.4211636 (LC, PFOA 50 μg/egg) | Mean concentration relative to control, feature 310.1181@1.5090439 (LC, PFOA 50 μg/egg) | Mean concentration relative to control, feature 316.0389@3.0725708 (LC, PFOA 50 μg/egg) | Mean concentration relative to control, feature 320.0626@3.0729218 (LC, PFOA 50 μg/egg) | Mean concentration relative to control, feature 335.1866@4.508565 (LC, PFOA 50 μg/egg) | Mean concentration relative to control, feature 348.0553@3.0730357 (LC, PFOA 50 μg/egg) | Mean concentration relative to control, feature 371.1513@3.0009465 (LC, PFOA 50 μg/egg) | Mean concentration relative to control, feature 414.1482@2.118972 (LC, PFOA 50 μg/egg)
0.8: Mean concentration relative to control, feature Win023_C06 (PFOA 50 μg/egg) | Mean concentration relative to control, feature 270.0441@1.1407775 (LC, PFOA 50 μg/egg) | Mean concentration relative to control, feature 305.1684@5.2955093 (LC, PFOA 50 μg/egg) | Mean concentration relative to control, feature 394.167@3.9552917 (LC, PFOA 50 μg/egg)
0.8*: Mean concentration relative to control, feature 245.1563@2.2907295 (LC, PFOA 50 μg/egg) | Mean concentration relative to control, feature 305.1682@5.353517 (LC, PFOA 50 μg/egg)
0.6*: Mean concentration relative to control, feature 176.0952@1.3890611 (LC, PFOA 50 μg/egg)
1.3: Mean concentration relative to control, feature Win042_C02 (PFOA 250 μg/egg)
0.9: Mean concentration relative to control, feature Win009_C03 (PFOA 50 μg/egg) | Mean concentration relative to control, feature Win005_C03 (PFOA 50 μg/egg) | Mean concentration relative to control, feature Win005_C03 (PFOA 250 μg/egg) | Mean concentration relative to control, feature 178.0428@1.7582192 (LC, PFOA 50 μg/egg) | Mean concentration relative to control, feature 189.1159@1.9209185 (LC, PFOA 50 μg/egg) | Mean concentration relative to control, feature 241.0551@2.3510706 (LC, PFOA 50 μg/egg) | Mean concentration relative to control, feature 325.1114@2.1190624 (LC, PFOA 50 μg/egg) | Mean concentration relative to control, feature 325.1115@2.3554378 (LC, PFOA 50 μg/egg) | Mean concentration relative to control, feature 333.1335@2.8639288 (LC, PFOA 50 μg/egg) | Mean concentration relative to control, feature 333.2005@6.5291867 (LC, PFOA 50 μg/egg) | Mean concentration relative to control, feature 337.1651@1.8737898 (LC, PFOA 50 μg/egg) | Mean concentration relative to control, feature 344.1424@2.348947 (LC, PFOA 50 μg/egg) | Mean concentration relative to control, feature 349.1651@2.4087605 (LC, PFOA 50 μg/egg) | Mean concentration relative to control, feature 357.1997@6.9691257 (LC, PFOA 50 μg/egg) | Mean concentration relative to control, feature 375.1819@3.672254 (LC, PFOA 50 μg/egg)
1.1: Mean concentration relative to control, feature Win008_C07 (PFOA 50 μg/egg) | Mean concentration relative to control, feature Win042_C02 (PFOA 50 μg/egg) | Mean concentration relative to control, feature Win008_C04 (PFOA 50 μg/egg) | Mean concentration relative to control, feature Win022_C01 (PFOA 250 μg/egg) | Mean concentration relative to control, feature Win023_C06 (PFOA 250 μg/egg) | Mean concentration relative to control, feature Win023_C03 (PFOA 250 μg/egg) | Mean concentration relative to control, feature Win018_C04 (PFOA 250 μg/egg) | Mean concentration relative to control, feature Win008_C04 (PFOA 250 μg/egg) | Mean concentration relative to control, feature Win013_C05 (PFOA 250 μg/egg) | Mean concentration relative to control, feature 214.016@2.1190732 (LC, PFOA 50 μg/egg) | Mean concentration relative to control, feature 288.1166@2.9551322 (LC, PFOA 50 μg/egg) | Mean concentration relative to control, feature 289.173@7.5030584 (LC, PFOA 50 μg/egg)
1.2: Mean concentration relative to control, feature Win008_C06 (PFOA 250 μg/egg) | Mean concentration relative to control, feature 134.0239@1.1350567 (LC, PFOA 50 μg/egg)
